Assays:
[1] = target: Cathepsin D (Homo sapiens, UniProt P07339); experiment: Inhibition of cathepsin D
[2] = target: Beta-secretase 1 (Homo sapiens, UniProt P56817); experiment: Inhibition of BACE1
Beta-secretase 1, sequence (P56817 whole entry): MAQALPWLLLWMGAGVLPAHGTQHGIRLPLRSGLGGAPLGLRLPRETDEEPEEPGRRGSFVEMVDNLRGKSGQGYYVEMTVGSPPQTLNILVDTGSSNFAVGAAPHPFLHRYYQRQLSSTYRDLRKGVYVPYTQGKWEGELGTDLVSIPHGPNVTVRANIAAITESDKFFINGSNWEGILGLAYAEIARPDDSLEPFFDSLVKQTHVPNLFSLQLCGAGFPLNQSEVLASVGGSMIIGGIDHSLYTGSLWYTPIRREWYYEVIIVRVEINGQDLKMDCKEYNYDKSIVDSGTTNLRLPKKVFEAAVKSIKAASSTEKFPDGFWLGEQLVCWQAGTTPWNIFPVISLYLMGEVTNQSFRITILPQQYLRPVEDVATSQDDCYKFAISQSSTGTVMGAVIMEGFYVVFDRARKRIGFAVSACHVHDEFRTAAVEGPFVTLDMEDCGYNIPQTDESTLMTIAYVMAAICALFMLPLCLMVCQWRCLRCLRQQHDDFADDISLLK

Cathepsin D, sequence (P07339 65-162 limits assumed): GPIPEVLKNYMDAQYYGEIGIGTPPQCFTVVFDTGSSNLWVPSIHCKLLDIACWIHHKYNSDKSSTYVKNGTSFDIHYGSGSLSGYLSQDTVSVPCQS
Cathepsin D, sequence (P07339 169-412 limits assumed): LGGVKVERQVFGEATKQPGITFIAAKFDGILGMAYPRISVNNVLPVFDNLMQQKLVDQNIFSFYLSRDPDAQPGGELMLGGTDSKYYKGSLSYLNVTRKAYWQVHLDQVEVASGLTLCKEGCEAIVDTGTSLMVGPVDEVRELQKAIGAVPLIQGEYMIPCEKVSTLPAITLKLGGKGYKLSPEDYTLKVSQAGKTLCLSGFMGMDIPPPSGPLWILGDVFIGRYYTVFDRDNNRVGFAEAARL

SMILES | IC50 [1] | IC50 [2]
CCCN(CCC)C(=O)c1cc(C(=O)N[C@@H](Cc2ccccc2)[C@H](O)CNCc2cccc(OC)c2)cc(C(=O)N(CCC)CCC)c1 | 3600 nM | 250 nM
CCCN(CCC)C(=O)c1cc(CC#N)cc(C(=O)N[C@@H](Cc2ccccc2)[C@H](O)CNCc2cccc(OC)c2)c1 | 570 nM | 360 nM
CCCNC(=O)c1cc(C#N)cc(C(=O)N[C@@H](Cc2ccccc2)[C@H](O)CNCc2cccc(OC)c2)c1 | > 20000 nM | 770 nM
CCCN(CCC)C(=O)c1cc(C(=O)N[C@@H](Cc2ccccc2)[C@H](O)CNCc2cccc(OC)c2)cc(C(=O)N(C)C)c1 | 3800 nM | 70 nM
CCCN(CCC)C(=O)c1cc(C(N)=O)cc(C(=O)N[C@@H](Cc2ccccc2)[C@H](O)CNCc2cccc(OC)c2)c1 | 2800 nM | 100 nM
CCCN(CCC)C(=O)c1cc(C)cc(C(=O)N[C@@H](Cc2ccccc2)[C@H](O)CNCc2cccc(OC)c2)c1 | 450 nM | 100 nM
CCCN(CCC)C(=O)c1cc(C#N)cc(C(=O)N[C@@H](Cc2ccccc2)[C@H](O)CNCc2cccc(OC)c2)c1 | 660 nM | 90 nM
CCCN(CCC)C(=O)c1cc(C(=O)O)cc(C(=O)N[C@@H](Cc2ccccc2)[C@H](O)CNCc2cccc(OC)c2)c1 | 3600 nM | 30 nM
CCCN(CCC)C(=O)c1cc(C(=O)N[C@@H](Cc2ccccc2)[C@H](O)CNCc2cccc(OC)c2)cc(C(=O)OCC)c1 | 866 nM | 132 nM
CCCNC(=O)c1cc(C(N)=O)cc(C(=O)N[C@@H](Cc2ccccc2)[C@H](O)CNCc2cccc(OC)c2)c1 | > 20000 nM | 1900 nM
CCCN(CCC)C(=O)c1cc(C(N)=O)cc(C(=O)N[C@@H](Cc2cc(F)cc(F)c2)[C@H](O)CNCc2cccc(OC)c2)c1 | 2400 nM | 
CCCN(CCC)C(=O)c1cc(C)cc(C(=O)N[C@@H](Cc2cc(F)cc(F)c2)[C@H](O)CNCc2cccc(CC)c2)c1 | 150 nM | 2 nM
CCCN(CCC)C(=O)c1cc(C(N)=O)cc(C(=O)N[C@@H](Cc2cc(F)cc(F)c2)[C@H](O)CNCc2cccc(CC)c2)c1 | 1600 nM | 5 nM
CCCN(CCC)C(=O)c1cc(C(N)=O)cc(C(=O)N[C@@H](Cc2ccc(O)cc2)[C@H](O)CNCc2cccc(OC)c2)c1 | > 20000 nM | 300 nM

— ChEMBL document CHEMBL1144655, “Potent and selective isophthalamide S2 hydroxyethylamine inhibitors of BACE1” (Bioorg Med Chem Lett, 2007)
